From the supplement of paper PMC13380429

Legend:
[1] = system: A549-ACE2; assay: phospholipidosis EC50; higher = less potent phospholipidosis inducer
[2] = system: A549-ACE2 infected with SARS-CoV-2; assay: cell count relative to DMSO; higher = less toxic; settings: 24 h
[3] = system: U2OS; assay: cell viability relative to DMSO; higher = less toxic; settings: 72 h
[4] = system: Caco-2; assay: as above; settings: 72 h
[5] = system: Vero E6; assay: as above; settings: 72 h
[6] = system: HepG2; assay: as above; settings: 72 h
[7] = system: Calu-3; assay: as above; settings: 72 h
[8] = system: A549-ACE2; assay: drug-induced phospholipidosis relative to tamoxifen; higher = more phospholipidosis
[9] = system: U2OS; assay: drug sensitivity score (DSS) for viability; higher = more toxic; extreme values may be limits of the assay; settings: 72 h
[10] = system: Caco-2; assay: as above; settings: 72 h
[11] = system: Vero E6; assay: as above; settings: 72 h
[12] = system: HepG2; assay: as above; settings: 72 h
[13] = system: Calu-3; assay: as above; settings: 72 h
[14] = system: A549-ACE2 infected with SARS-CoV-2; assay: SARS-CoV-2 infection rate relative to DMSO; higher = more infection; settings: 24 h
[15] = system: U2OS; assay: relative viability EC50 (midpoint between 100% and the lowest measured viability); higher = less toxic; settings: 72 h
[16] = system: Caco-2; assay: as above; settings: 72 h
[17] = system: Vero E6; assay: as above; settings: 72 h
[18] = system: HepG2; assay: as above; settings: 72 h
[19] = system: Calu-3; assay: as above; settings: 72 h
[20] = system: A549-ACE2 infected with SARS-CoV-2; assay: morphology score (similarity to uninfected cells); higher = more like uninfected cells; settings: 24 h

O=C(NCCN1CCC2(CC1)C(=O)NCN2c1cccc(F)c1)c1ccc(F)c(F)c1 [ML298]
Settings | SARS-CoV-2 infection rate [%] | cell count [%] | cell viability [%] | morphology score | phospholipidosis EC50 [µM]
[1], 24 h | – | – | – | – | 7.34
[1], 48 h | – | – | – | – | 9.19
[1], 72 h | – | – | – | – | 8.25
[2], 0.3 µM | – | 102 | – | – | –
[2], 3 µM | – | 102 | – | – | –
[2], 10 µM | – | 116 | – | – | –
[2], 30 µM | – | 95 | – | – | –
[3], 1 nM | – | – | 103 | – | –
[3], 10 nM | – | – | 102 | – | –
[3], 100 nM | – | – | 104 | – | –
[3], 1000 nM | – | – | 98.5 | – | –
[3], 10000 nM | – | – | 94.2 | – | –
[4], 1 nM | – | – | 98 | – | –
[4], 10 nM | – | – | 99.7 | – | –
[4], 100 nM | – | – | 95.2 | – | –
[4], 1000 nM | – | – | 91.1 | – | –
[4], 10000 nM | – | – | 89.9 | – | –
[5], 1 nM | – | – | 101 | – | –
[5], 10 nM | – | – | 105 | – | –
[5], 100 nM | – | – | 102 | – | –
[5], 1000 nM | – | – | 107 | – | –
[5], 10000 nM | – | – | 89.8 | – | –
[6], 1 nM | – | – | 97.3 | – | –
[6], 10 nM | – | – | 103 | – | –
[6], 100 nM | – | – | 101 | – | –
[6], 1000 nM | – | – | 97.7 | – | –
[6], 10000 nM | – | – | 89.1 | – | –
[7], 1 nM | – | – | 96.7 | – | –
[7], 10 nM | – | – | 104 | – | –
[7], 100 nM | – | – | 101 | – | –
[7], 1000 nM | – | – | 93.9 | – | –
[7], 10000 nM | – | – | 89.1 | – | –
[14], 0.3 µM | 100 | – | – | – | –
[14], 3 µM | 83 | – | – | – | –
[14], 10 µM | 32 | – | – | – | –
[14], 30 µM | 25 | – | – | – | –
[20], 0.3 µM | – | – | – | -0.08 | –
[20], 3 µM | – | – | – | 0.43 | –
[20], 10 µM | – | – | – | 0.74 | –
[20], 30 µM | – | – | – | 0.22 | –

drug-induced phospholipidosis [%], [8]
Settings | 0.3 µM | 0.833333 µM | 3.33333 µM | 6.66667 µM | 10 µM | 30 µM
24 h | 1.51 | 2.03 | 17.2 | 46.9 | 89.3 | 113
48 h | 7.03 | 7.88 | 17.8 | 36.7 | 79.7 | 127
72 h | 6.97 | 7.75 | 18.7 | 39.7 | 90.5 | –

Settings | drug sensitivity score | relative viability EC50 [µM]
[9] | 0 | –
[10] | 0 | –
[11] | 0 | –
[12] | 0 | –
[13] | 0.1 | –
[15] | – | > 10
[16] | – | > 10
[17] | – | > 10
[18] | – | > 10
[19] | – | > 10
